One block for each molecule: values may come before it.
What was measured:
human TGR5 = biological target: T1, human TGR5 (Homo sapiens, UniProt Q8TDU6); assay: cAMP HTRF TGR5 agonism assay in HEK293T cells expressing human TGR5; assay type: cell-based; conditions: for TGR5 agonistic activity (in words): hTGR5, cAMP HTRF
T1 sequence (Q8TDU6 1-330): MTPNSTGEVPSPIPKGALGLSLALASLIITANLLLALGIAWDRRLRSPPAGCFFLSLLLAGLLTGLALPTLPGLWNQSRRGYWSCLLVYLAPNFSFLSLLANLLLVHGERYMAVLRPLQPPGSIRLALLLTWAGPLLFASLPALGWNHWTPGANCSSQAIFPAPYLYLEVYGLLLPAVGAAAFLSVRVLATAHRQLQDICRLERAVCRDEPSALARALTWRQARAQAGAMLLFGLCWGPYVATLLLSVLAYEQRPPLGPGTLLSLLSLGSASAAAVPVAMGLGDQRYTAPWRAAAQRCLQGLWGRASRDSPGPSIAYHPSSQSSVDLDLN

NCI-H716 cells = assay: In vitro GLP-1 secretion assay; assay type: cell-based, human; conditions: 4 μM, 2 h
C57 BL/6 mice = assay: In vivo GLP-1 secretion; conditions: 50 mg kg−1 oral, blood 4 h later
[1] = In vitro human plasma stability assay; assay type: in vitro ADME
mouse TGR5 = biological target: T2, mouse TGR5 (Mus musculus, UniProt Q80SS6); assay: cAMP HTRF TGR5 agonism assay in HEK293T cells expressing mouse TGR5; assay type: cell-based
T2 sequence (Q80SS6 1-329): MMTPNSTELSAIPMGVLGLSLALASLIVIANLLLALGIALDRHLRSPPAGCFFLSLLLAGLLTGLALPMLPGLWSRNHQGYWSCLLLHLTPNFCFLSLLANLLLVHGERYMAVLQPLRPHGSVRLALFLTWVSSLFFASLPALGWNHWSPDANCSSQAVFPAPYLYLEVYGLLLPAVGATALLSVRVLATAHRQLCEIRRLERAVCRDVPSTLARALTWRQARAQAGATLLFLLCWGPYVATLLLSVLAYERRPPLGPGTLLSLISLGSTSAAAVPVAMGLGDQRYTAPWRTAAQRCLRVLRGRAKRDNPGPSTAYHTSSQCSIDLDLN

A549 cells = assay: CCK8 cytotoxicity assay in A549 cells; assay type: cell-based; conditions: Homo sapiens, A549, read-out: IC50 A549
HeLa cells = assay: CCK8 cytotoxicity assay in HeLa cells; assay type: cell-based; conditions: Homo sapiens, read-out: IC50 HeLa

SMILES: O=C(c1cc2ccccc2n1Cc1ccc(Cl)cc1)N1CCN(C2CC2)c2ccccc21 [18b, (1-(4-Chlorobenzyl)-1H-indol-2-yl)(4-cyclopropyl-3,4-dihydroquinoxalin-1(2H)-yl)methanone]
- EC50 (human TGR5): > 30000 nM
- TGR5 agonistic activity (in words) (human TGR5): no TGR5 agonistic activities

SMILES: CN(C(=O)c1nccnc1Oc1cc(Cl)ccc1Cl)c1ccc(F)cc1 [18r, 3-(2,5-Dichlorophenoxy)-N-(4-fluorophenyl)-N-methylpyrazine-2-carboxamide]
- EC50 (human TGR5): > 10000 nM

SMILES: O=C(c1cc2sccc2n1Cc1ccc(Cl)cc1)N1CCN(C2CC2)c2ccccc21 [18c, (4-(4-Chlorobenzyl)-4H-thieno[3,2-b]pyrrol-5-yl)(4-cyclopropyl-3,4-dihydroquinoxalin-1(2H)-yl)methanone]
- EC50 (human TGR5): > 30000 nM
- TGR5 agonistic activity (in words) (human TGR5): no TGR5 agonistic activities

SMILES: O=C(c1nccnc1Oc1cc(Cl)ccc1Cl)N1CCOc2ccccc21 [18u, (3-(2,5-Dichlorophenoxy)pyrazin-2-yl)(2,3-dihydro-4H-benzo[b][1,4]oxazin-4-yl)methanone]
- EC50 (human TGR5): > 10000 nM

SMILES: O=C(c1nccnc1Oc1ccc(Cl)cc1)N1CCN(C2CC2)c2ccccc21 [18d, (3-(4-Chlorophenoxy)pyrazin-2-yl)(4-cyclopropyl-3,4-dihydroquinoxalin-1(2H)-yl)methanone]
- EC50 (human TGR5): 1500 nM

SMILES: O=C(C1Cc2ccccc2CN1Cc1ccc(Cl)cc1)N1CCN(C2CC2)c2ccccc21 (stereo not shown) [18a, (2-(4-Chlorobenzyl)-1,2,3,4-tetrahydroisoquinolin-3-yl)(4-cyclopropyl-3,4-dihydroquinoxalin-1(2H)-yl)methanone]
- EC50 (human TGR5): > 30000 nM
- TGR5 agonistic activity (in words) (human TGR5): no TGR5 agonistic activities

SMILES: O=C(c1nccnc1Oc1cc(Cl)ccc1Cl)N1CCN(c2ccccc2F)CC1 [18o, (3-(2,5-Dichlorophenoxy)pyrazin-2-yl)(4-(2-fluorophenyl)piperazin-1-yl)methanone]
- EC50 (human TGR5): > 10000 nM

Molecules with a lower EC50 (human TGR5), results first:

- EC50 (human TGR5): 36.7 nM
SMILES: O=C(c1nccnc1Oc1ccccc1F)N1CCN(C2CC2)c2ccccc21 [18f, (4-Cyclopropyl-3,4-dihydroquinoxalin-1(2H)-yl)(3-(2-fluorophenoxy)pyrazin-2-yl)methanone]

- EC50 (human TGR5): 0.58 nM
- half-life [1]: > 4.82 h
- remaining at 0 h [1]: 100%
- remaining at 0.5 h [1]: 104%
- remaining at 1 h [1]: 102%
- remaining at 2 h [1]: 85.4%
- EC50 (mouse TGR5): 267 nM
SMILES: O=C(c1nccnc1Oc1cc(Cl)ccc1Cl)N1CCN(C2CC2)c2ccccc21 [18k, (4-Cyclopropyl-3,4-dihydroquinoxalin-1(2H)-yl)(3-(2,5-dichlorophenoxy)pyrazin-2-yl)methanone]
- GLP-1 secretion compared to control (NCI-H716 cells): increase the secretion of GLP-1
- GLP-1 secretion compared to control (C57 BL/6 mice): increase GLP-1 secretion
- IC50 (A549 cells): > 50000 nM
- IC50 (HeLa cells): > 50000 nM

- EC50 (human TGR5): 442 nM
SMILES: O=C(c1nccnc1Oc1ccc(F)cc1)N1CCN(C2CC2)c2ccccc21 [18e, (4-Cyclopropyl-3,4-dihydroquinoxalin-1(2H)-yl)(3-(4-fluorophenoxy)pyrazin-2-yl)methanone]

- EC50 (human TGR5): 9.89 nM
- EC50 (mouse TGR5): 538 nM
SMILES: O=C(c1nccnc1Oc1ccc(Cl)cc1Cl)N1CCN(C2CC2)c2ccccc21 [18j, (4-Cyclopropyl-3,4-dihydroquinoxalin-1(2H)-yl)(3-(2,4-dichlorophenoxy)pyrazin-2-yl)methanone]
- IC50 (A549 cells): > 50000 nM
- IC50 (HeLa cells): > 50000 nM

- EC50 (human TGR5): 1.44 nM
- EC50 (mouse TGR5): 120 nM
SMILES: O=C(c1nccnc1Oc1ccccc1Cl)N1CCN(C2CC2)c2ccccc21 [18g, (3-(2-Chlorophenoxy)pyrazin-2-yl)(4-cyclopropyl-3,4-dihydroquinoxalin-1(2H)-yl)methanone]
- IC50 (A549 cells): > 50000 nM
- IC50 (HeLa cells): > 50000 nM

- EC50 (human TGR5): 895 nM
SMILES: O=C(c1nccnc1Oc1ccc(-c2ccccc2)cc1)N1CCN(C2CC2)c2ccccc21 [18l, (3-([1,1′-Biphenyl]-4-yloxy)pyrazin-2-yl)(4-cyclopropyl-3,4-dihydroquinoxalin-1(2H)-yl)methanone]

- EC50 (human TGR5): 83.2 nM
SMILES: Cc1ccc(Oc2nccnc2C(=O)N2CCN(C3CC3)c3ccccc32)cc1 [18i, (4-Cyclopropyl-3,4-dihydroquinoxalin-1(2H)-yl)(3-(p-tolyloxy)pyrazin-2-yl)methanone]

- EC50 (human TGR5): 196 nM
SMILES: COc1ccc(Oc2nccnc2C(=O)N2CCN(C3CC3)c3ccccc32)cc1 [18h, (4-Cyclopropyl-3,4-dihydroquinoxalin-1(2H)-yl)(3-(4-methoxyphenoxy)pyrazin-2-yl)methanone]

From PMC8979340 (RSC Advances, 2022)
